Laboratory results: patent publication US9051248B2, “Methods, compounds, and compositions for delivering 1,3-propanedisulfonic acid” (BHI Limited Partnership, priority 2009, dated 2015)
Read-outs that look alike come from different tables or passages of the source. Values belong to the compound of their own block, whether it stands above or below them.

Assays:
[1] = Water stability (conversion of prodrug to 1,3PDS); assay type: physicochemical; conditions: deionized water; for Conversion to 1,3PDS (%) 1 h / Conversion to 1,3PDS (%) 2 h: 37° C.; for Conversion to 1,3PDS (%) 0 h / Conversion to 1,3PDS (%) 24 h: room temperature; for Conversion to 1,3PDS (%) 0 h: 200 μg/mL
Method: (§1) The objective of this test was to determine the stability of the prodrugs in simulated gastric fluid (SGF) and water at 37° C. up to 2 hours and in water at room temperature up to 24 hours.
(§2) Simulated gastric fluid and water samples were incubated in a shaking water bath at 37° C. for up to 2 hours. The compound (prodrug) was added at Time-point 0. At each selected time point (refer to table), sample aliquots were withdrawn and analyzed to determine the concentration of 1,3-propanedisulfonic acid (1,3PDS). The concentrations of 1,3PDS were calculated based on their respective peak area. The % appearance of 1,3PDS was determined by the amounts of compound determined at each time point compared to nominal concentration (100%) of 1,3PDS generated by 100% of the prodrug (equivalent concentration).
A fresh stock solution at approximately 2 mg/mL of the compound was prepared. One stability solution at 200 μg/mL in the SGF was prepared (sample referred to as Tube A). A stability solution at 200 μg/mL in deionized water was prepared (sample referred to as Tube B). Immediately after preparation, each 200 μg/mL solution was diluted in triplicates to 20 μg/mL in deionized water and analyzed using LC-MS/MS method (Time-point 0). Thereafter, the incubation of tubes A and B was continued in the shaking water bath at 37° C. for 1 and 2 hours while one aliquot of tube B was kept at room temperature for 24 hours. At each specific time point of incubation, 3 aliquots (triplicate) of 50 μL were removed, diluted in 450 μL of water and analyzed using LC-MS/MS method. In parallel, 3 reference samples of 1,3PDS at 100, 10 and 1 μg/mL were prepared, diluted in triplicate in water and injected at the beginning and at the end of the batch. These samples were considered as reference samples.
(§3) The concentrations of 1,3PDS were calculated based on response of the reference samples and their respective peak area response. The % appearance of 1,3PDS was determined by the amounts of compound determined at each time point compared to expected nominal concentration (100%) of 1,3PDS generated by 100% of the prodrug (equivalent concentration).

[2] = Simulated gastric fluid (SGF) stability; assay type: in vitro ADME; conditions: SGF pH 1.5 with pepsin, 37° C.
Method: as §1, §2
Amounts of 0.2 g of sodium chloride and 0.32 g of pepsin were weighted and transferred into a 100-mL volumetric flask. Approximately 50 mL of deionized water was added and the mixture well mixed. A volume of 700 μL of hydrochloric acid was added, and the volume completed to 100 mL with deionized water. The resulting mixture was transferred in a polypropylene bottle and pH measured (pH=1.5).
A fresh stock solution at approximately 2 mg/mL of the compound was prepared. One stability solution at 200 μg/mL in the SGF was prepared (sample referred to as Tube A). […] Immediately after preparation, each 200 μg/mL solution was diluted in triplicates to 20 μg/mL in deionized water and analyzed using LC-MS/MS method (Time-point 0). […] At each specific time point of incubation, 3 aliquots (triplicate) of 50 μL were removed, diluted in 450 μL of water and analyzed using LC-MS/MS method. […]
as §3

[3] = Human whole blood stability; assay type: in vitro ADME; conditions: fresh human whole blood, 37° C.; for Conversion to 1,3PDS (% by molar ratio) 0 h: about 100 μg/mL
Method: The objective of this test was to determine the stability of the prodrugs in fresh human whole blood at different time-points (0, 0.5, 1, 4, 24 hours). Blood samples were incubated in a shaking water bath at 37° C. for up to 24 hours. The compound (prodrug) was added at Time-point 0, and sample aliquots were withdrawn and analyzed at each time point to determine the concentration of 1,3PDS. If possible, the loss of compound was determined by the amounts of compound determined at each time point compared to the amount determined at Time-point 0. To eliminate the conversion due to the matrix, a special Time-point 0 was prepared in pre-extracted blood sample.
Approximately 2.5 mL of whole blood was incubated in a gently shaking water bath at 37° C. for 15 minutes. Two (2) mL of the pre-incubated whole blood were aliquoted in an eppendorf tube. A 100 μL aliquot of blood was removed and 100 μL of the compound Stock Solution was added. The solution was mixed by inversion. This sample was referred to as Tube A. The final concentration of the compound in tube A was approximately at 100 μg/mL. Immediately after mixing, 100 μL of Tube A was aliquotted into 3 different eppendorf tubes. These samples were extracted as described in the “Extraction Procedure” Section. These samples were referred to Time-point 0. Thereafter, the incubation of Tube A was continued in the shaking water bath at 37° C. for 0.5, 1, 4 and 24 hours. At each specific time point of incubation, aliquots (triplicate) of 100 μL were removed and extracted as described in the “Extraction Procedure” Section. To avoid potential further degradation of compound and/or possible degradation products, the aliquot extracts were kept on ice until analysis. After extraction, samples were analyzed using LC-MS/MS method.
A volume of 300 μL of cold-ice acetonitrile was added to a 1.5 mL eppendorf tube and kept on ice until utilization. 100 μL of the sample to be extracted was added and the mix was vortexed (acetonitrile and blood). The sample was centrifuged at 16250×g (13200 rpm on IEC centrifuge with eppendorf rotor) for 5 minutes. A volume of 250 μL of the supernatant was transferred to another tube and evaporated to dryness under a nitrogen stream. The residue was reconstituted with the mobile phase. This sample was then analyzed according to 1,3PDS specific methods.
as §3, with “the nominal concentration” for “response”, “calibration standards” for “reference samples”, “ratio. A linear regression using a weight of 1/x^2 is used to derive the concentration of 1,3PDS.” for “response.”, “to” for “to expected”

[4] = PK study in rats (1,3PDS plasma AUC after oral administration of prodrugs); conditions: rat plasma, oral gavage, dose molar equivalent to 100 mg/kg 1,3PDS(2Na)
[5] = rat, in vivo, po, 100 mg/kg
[6] = vehicle 2 0.5% Methocel in water

Conversion to 1,3PDS (%) 1 h [1]: 0.1%
Conversion to 1,3PDS (%) 2 h [1]: 0.1%
Conversion to 1,3PDS (%) 0 h [1]: 0.0%
Conversion to 1,3PDS (%) 24 h [1]: 0.0%
Conversion to 1,3PDS (%) 0 h ([2]; 0 h): 0.0%
Conversion to 1,3PDS (%) 1 h ([2]; 1 h): 0.0%
Conversion to 1,3PDS (%) 2 h ([2]; 2 h): 0.0%
Conversion to 1,3PDS (% by molar ratio) 0.5 h [3]: 0.1 % by molar ratio
Conversion to 1,3PDS (% by molar ratio) 1 h [3]: 0.2 % by molar ratio
Conversion to 1,3PDS (% by molar ratio) 4 h [3]: 0.4 % by molar ratio
Conversion to 1,3PDS (% by molar ratio) 24 h [3]: 2.0 % by molar ratio
Conversion to 1,3PDS (% by molar ratio) 0 h [3]: 0.1 % by molar ratio
1,3PDS AUC0-Tlast ([4]; vehicle 1 water): 1097 ng·h/mL
SMILES: COC(=O)c1ccccc1OS(=O)(=O)CCCS(=O)(=O)O [A32(Na)]

SMILES: CCOP(=O)(OCC)OCC(C)(C)COS(=O)(=O)CCCS(=O)(=O)[O-].[Na+] [A66(Na)]
1,3PDS AUC0-Tlast [4, 6]: BLLQ

1,3PDS AUC0-Tlast [4, 6]: BLLQ
SMILES: CC(CO)(CO)COS(=O)(=O)CCCS(=O)(=O)O [A68(Na)]

1,3PDS AUC0-Tlast [4, 6]: BLLQ
SMILES: CC(C)(C#N)COS(=O)(=O)CCCS(=O)(=O)OCC(C)(C)C#N [Compound B71]

SMILES: CC(C)(COS(=O)(=O)CCCS(=O)(=O)OCC(C)(C)[N+](=O)[O-])[N+](=O)[O-] [Compound B72]
1,3PDS AUC0-Tlast [5]: BLLQ

SMILES: CC(C)(C)C(C#N)OS(=O)(=O)CCCS(=O)(=O)OC(C#N)C(C)(C)C (stereo not shown) [Compound B84]
1,3PDS AUC0-Tlast ([5]; male, Sprague-Dawley): 2953 ng·h/mL

Conversion to 1,3PDS (%) 1 h [1]: 57.3%
Conversion to 1,3PDS (%) 2 h [1]: 63.1%
Conversion to 1,3PDS (%) 0 h [1]: 50.3%
Conversion to 1,3PDS (%) 24 h [1]: 61.2%
Conversion to 1,3PDS (% by molar ratio) 0.5 h [3]: AULQ
Conversion to 1,3PDS (% by molar ratio) 1 h [3]: AULQ
Conversion to 1,3PDS (% by molar ratio) 4 h [3]: AULQ
Conversion to 1,3PDS (% by molar ratio) 24 h [3]: AULQ
Conversion to 1,3PDS (% by molar ratio) 0 h [3]: AULQ
SMILES: O=S1(=O)CCCS(=O)(=O)O1 [Compound C1]

1,3PDS AUC0-Tlast [4, 6]: BLLQ
SMILES: O=S(O)CCCS(=O)O [P1(2Na)]
